According to ChEMBL document CHEMBL5209564, “Superclomeleon biosensor based assay for SLC12A3 using HEK-293 SLC12A3 OE cells” (2022):

Biological target: T1, Solute carrier family 12 member 3 (Homo sapiens) (UniProt P55017)
T1 sequence (whole entry): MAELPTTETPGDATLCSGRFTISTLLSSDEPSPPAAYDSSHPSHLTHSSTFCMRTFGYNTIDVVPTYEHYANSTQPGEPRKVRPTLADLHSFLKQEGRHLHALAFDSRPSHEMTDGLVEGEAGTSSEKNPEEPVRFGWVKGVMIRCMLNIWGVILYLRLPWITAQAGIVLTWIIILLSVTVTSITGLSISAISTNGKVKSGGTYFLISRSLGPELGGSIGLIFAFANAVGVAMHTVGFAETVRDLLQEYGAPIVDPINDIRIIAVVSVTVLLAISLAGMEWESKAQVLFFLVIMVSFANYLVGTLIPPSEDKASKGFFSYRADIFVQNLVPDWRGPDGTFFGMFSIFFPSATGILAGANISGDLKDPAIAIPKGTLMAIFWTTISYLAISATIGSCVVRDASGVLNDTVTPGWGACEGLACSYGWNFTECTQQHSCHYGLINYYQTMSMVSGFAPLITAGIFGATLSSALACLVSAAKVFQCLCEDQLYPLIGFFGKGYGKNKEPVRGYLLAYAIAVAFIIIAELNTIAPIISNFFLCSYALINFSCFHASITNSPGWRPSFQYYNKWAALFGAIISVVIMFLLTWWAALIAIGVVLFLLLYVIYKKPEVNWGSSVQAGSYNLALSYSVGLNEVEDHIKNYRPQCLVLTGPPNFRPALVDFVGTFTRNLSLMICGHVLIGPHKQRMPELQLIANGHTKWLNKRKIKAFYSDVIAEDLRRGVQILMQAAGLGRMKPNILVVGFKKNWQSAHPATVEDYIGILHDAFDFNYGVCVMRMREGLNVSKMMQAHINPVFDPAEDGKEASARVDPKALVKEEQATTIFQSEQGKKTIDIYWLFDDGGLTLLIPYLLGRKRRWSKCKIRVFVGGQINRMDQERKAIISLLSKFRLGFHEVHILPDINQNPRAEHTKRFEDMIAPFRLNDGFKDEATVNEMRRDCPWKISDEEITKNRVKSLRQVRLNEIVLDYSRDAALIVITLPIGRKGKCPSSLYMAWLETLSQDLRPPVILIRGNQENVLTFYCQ
Conditions: HEK293
Description: Substrate uptake by the thiazide-sensitive electroneutral NaCl co-transporter (NCC, SLC12A3) as assessed by a Cl- sensitive FRET (Fluorescence Resonance Energy Transfer) sensor (SuperClomeleon) in HEK-293 JumpIN-SLC12A3 cells (PubChem AID: 1794834)

**Q.** With `Cl` as the molecule, how does the proof of principle read?
**A.** Its proof of principle is “Substrate. In Comparison To Wild-Type And Not-Induced Cells, Cells With Induced Slc12A3 Expression Showed A Specific Transporter Activity, Upon Substrate Addition, Detected As Significantly Higher Sensor Fluorescence Quenching”.
